PMC7486443, “Generation of Phenothiazine with Potent Anti-TLK1 Activity for Prostate Cancer Therapy” (iScience, 2020)

How the values were obtained:
Test in all cases: biochemical
Parameters in all cases: DiscoverX KINOMEscan scanMAX competition binding panel, single concentration, percent of control; remaining binding: dose or concentration left out as unconfirmed
Settings in all cases: KINOMEscan binding, percent of control; read-out: Table S4_SCANMAX REPORT - related to Fig. 1 / Percent Control
CLK1 = CLK1 (Homo sapiens, UniProt P49759)
Chain of CLK1 (P49759 whole entry): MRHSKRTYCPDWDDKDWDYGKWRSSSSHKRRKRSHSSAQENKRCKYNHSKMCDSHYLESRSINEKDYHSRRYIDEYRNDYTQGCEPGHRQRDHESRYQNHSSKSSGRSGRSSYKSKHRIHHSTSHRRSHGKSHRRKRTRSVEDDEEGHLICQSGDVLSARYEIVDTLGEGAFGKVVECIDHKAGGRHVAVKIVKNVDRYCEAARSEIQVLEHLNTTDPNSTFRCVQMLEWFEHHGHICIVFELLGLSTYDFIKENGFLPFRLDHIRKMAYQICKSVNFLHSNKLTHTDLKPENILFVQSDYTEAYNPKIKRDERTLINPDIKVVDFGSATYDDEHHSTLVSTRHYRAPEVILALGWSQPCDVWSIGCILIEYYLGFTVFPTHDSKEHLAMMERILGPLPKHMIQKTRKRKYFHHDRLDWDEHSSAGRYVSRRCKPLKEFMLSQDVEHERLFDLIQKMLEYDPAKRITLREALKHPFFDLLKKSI

DCAMKL3 = molecular target: T1, DCAMKL3 (Homo sapiens, UniProt Q9C098)
T1 construct: gene DCLK3
T1 sequence (Q9C098 whole entry): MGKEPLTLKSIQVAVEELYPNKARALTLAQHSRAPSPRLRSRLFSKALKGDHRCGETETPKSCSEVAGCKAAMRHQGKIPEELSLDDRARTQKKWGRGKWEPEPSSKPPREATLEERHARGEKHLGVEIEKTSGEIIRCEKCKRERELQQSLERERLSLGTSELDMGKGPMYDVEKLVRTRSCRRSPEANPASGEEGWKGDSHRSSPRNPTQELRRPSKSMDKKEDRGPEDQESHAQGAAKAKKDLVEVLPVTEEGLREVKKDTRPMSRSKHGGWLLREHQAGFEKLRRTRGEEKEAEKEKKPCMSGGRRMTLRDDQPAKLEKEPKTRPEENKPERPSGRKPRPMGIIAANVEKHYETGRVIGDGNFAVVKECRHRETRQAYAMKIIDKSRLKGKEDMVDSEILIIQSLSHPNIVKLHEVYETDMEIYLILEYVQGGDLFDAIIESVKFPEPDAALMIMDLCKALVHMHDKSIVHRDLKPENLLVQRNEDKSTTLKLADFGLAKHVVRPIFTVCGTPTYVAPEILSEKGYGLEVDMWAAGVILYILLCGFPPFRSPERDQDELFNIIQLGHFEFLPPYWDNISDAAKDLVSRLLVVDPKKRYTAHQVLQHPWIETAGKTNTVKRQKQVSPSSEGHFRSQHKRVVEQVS

ERK4 = molecular target: T2, ERK4 (Homo sapiens, UniProt P31152)
T2 construct: gene MAPK4
T2 sequence (P31152 whole entry): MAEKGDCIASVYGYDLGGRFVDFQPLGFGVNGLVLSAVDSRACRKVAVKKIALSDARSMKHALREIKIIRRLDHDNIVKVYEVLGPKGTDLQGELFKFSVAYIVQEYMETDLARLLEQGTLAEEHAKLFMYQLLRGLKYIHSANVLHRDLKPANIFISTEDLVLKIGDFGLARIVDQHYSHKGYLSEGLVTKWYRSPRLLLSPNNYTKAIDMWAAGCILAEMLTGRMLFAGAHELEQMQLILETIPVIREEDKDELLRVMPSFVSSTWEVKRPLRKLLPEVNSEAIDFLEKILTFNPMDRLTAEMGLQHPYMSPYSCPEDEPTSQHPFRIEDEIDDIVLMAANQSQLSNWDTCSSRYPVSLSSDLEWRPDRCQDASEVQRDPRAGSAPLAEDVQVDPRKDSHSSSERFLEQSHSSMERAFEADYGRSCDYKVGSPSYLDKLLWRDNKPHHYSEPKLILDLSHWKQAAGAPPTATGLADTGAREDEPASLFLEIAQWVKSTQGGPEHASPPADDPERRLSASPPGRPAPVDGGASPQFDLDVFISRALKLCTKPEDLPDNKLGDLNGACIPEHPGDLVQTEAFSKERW

EGFR(L858R,T790M) = EGFR(L858R,T790M) (Homo sapiens, UniProt P00533, L858R/T790M)
PHKG1 = PHKG1 (Homo sapiens, UniProt Q16816)
Chain of PHKG1 (Q16816 whole entry): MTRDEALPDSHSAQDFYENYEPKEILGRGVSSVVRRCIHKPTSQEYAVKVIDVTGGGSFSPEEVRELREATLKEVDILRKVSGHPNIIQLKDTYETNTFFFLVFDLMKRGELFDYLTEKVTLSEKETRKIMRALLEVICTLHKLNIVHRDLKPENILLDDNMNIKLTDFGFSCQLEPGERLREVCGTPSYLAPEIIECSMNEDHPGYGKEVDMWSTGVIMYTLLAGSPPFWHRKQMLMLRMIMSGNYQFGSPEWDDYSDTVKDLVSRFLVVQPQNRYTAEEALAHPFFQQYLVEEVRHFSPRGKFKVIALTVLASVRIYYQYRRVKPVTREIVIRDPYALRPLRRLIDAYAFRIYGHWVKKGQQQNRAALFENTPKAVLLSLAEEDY

CHEK2 = CHEK2 (Homo sapiens, UniProt O96017)
IRAK4 = IRAK4 (Homo sapiens, UniProt Q9NWZ3)
NLK = NLK (Homo sapiens, UniProt Q9UBE8)
Chain of NLK (Q9UBE8 whole entry): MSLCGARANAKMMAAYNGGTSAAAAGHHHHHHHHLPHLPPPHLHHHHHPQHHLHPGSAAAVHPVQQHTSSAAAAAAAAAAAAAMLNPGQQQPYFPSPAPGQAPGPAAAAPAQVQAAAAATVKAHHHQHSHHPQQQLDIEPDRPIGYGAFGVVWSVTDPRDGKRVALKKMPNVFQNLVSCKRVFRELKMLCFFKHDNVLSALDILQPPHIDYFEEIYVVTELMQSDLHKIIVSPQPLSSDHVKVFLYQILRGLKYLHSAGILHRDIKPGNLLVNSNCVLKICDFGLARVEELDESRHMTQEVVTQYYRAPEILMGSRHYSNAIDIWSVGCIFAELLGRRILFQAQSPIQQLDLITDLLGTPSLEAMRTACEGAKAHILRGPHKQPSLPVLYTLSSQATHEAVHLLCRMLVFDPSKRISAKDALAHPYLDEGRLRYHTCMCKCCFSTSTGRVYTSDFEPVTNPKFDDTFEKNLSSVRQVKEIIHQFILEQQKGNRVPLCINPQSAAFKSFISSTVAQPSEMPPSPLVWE

[1] = molecular target: T3, RSK4(Kin.Dom.1-N-terminal) (Homo sapiens, UniProt Q9UK32)
T3 construct: gene RPS6KA6; Kin.Dom.1-N-terminal

GSK3B = GSK3B (Homo sapiens, UniProt P49841)
Chain of GSK3B (P49841 whole entry): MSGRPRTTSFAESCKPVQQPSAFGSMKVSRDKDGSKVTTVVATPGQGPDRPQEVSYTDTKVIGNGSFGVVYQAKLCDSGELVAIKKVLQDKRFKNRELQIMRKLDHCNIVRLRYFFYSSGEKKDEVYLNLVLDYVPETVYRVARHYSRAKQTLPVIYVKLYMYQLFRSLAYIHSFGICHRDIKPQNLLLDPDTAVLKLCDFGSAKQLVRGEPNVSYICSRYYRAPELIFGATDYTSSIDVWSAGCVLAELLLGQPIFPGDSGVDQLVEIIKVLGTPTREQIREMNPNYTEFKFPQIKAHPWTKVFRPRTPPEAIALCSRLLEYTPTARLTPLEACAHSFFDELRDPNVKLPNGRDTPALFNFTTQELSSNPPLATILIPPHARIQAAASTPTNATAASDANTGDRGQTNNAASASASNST

MYO3A = MYO3A (Homo sapiens, UniProt Q8NEV4)
Chain of MYO3A (Q8NEV4 whole entry): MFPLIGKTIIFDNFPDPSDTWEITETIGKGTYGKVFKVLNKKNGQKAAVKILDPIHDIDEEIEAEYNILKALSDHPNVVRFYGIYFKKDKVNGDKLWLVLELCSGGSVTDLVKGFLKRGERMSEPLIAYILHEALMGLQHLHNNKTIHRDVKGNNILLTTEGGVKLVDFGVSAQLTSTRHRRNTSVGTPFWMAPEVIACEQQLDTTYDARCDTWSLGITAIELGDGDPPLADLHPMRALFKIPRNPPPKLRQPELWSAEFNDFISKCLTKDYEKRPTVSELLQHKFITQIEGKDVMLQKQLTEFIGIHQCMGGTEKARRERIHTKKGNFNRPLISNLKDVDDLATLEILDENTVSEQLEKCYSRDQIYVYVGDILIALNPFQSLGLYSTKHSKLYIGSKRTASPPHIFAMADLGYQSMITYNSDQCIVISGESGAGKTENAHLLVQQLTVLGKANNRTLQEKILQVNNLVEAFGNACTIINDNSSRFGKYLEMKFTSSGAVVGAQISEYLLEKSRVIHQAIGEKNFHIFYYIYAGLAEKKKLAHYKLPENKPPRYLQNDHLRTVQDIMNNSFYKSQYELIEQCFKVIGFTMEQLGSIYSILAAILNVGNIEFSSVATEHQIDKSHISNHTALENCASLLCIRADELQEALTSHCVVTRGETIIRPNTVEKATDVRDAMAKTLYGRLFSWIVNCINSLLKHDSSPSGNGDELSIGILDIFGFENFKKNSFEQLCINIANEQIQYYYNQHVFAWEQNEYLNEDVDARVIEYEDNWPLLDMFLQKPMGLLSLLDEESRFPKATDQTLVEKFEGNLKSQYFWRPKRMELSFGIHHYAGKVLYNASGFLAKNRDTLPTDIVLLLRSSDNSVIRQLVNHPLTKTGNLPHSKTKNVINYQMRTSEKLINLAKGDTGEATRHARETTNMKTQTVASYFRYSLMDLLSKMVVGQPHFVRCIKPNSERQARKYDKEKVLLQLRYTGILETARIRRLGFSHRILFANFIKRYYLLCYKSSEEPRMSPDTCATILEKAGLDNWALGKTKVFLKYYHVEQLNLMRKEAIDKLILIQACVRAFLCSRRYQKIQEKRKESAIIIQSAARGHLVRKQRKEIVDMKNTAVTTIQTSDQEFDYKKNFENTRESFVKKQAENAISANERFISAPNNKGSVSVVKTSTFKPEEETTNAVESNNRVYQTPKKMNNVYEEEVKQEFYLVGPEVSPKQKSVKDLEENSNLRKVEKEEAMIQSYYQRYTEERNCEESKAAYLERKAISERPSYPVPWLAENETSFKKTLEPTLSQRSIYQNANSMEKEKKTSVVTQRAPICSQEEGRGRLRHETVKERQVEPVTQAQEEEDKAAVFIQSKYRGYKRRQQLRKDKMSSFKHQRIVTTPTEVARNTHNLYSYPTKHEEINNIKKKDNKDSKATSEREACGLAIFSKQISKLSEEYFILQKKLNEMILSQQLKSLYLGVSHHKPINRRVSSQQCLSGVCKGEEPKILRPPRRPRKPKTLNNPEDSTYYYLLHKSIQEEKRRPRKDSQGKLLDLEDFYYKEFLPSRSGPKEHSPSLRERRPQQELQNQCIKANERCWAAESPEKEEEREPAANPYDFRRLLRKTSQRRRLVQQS

PAK6 = PAK6 (Homo sapiens, UniProt Q9NQU5)
TNNI3K = TNNI3K (Homo sapiens, UniProt Q59H18)
EPHB3 = EPHB3 (Homo sapiens, UniProt P54753)
AURKB = AURKB (Homo sapiens, UniProt Q96GD4)
Chain of AURKB (Q96GD4 whole entry): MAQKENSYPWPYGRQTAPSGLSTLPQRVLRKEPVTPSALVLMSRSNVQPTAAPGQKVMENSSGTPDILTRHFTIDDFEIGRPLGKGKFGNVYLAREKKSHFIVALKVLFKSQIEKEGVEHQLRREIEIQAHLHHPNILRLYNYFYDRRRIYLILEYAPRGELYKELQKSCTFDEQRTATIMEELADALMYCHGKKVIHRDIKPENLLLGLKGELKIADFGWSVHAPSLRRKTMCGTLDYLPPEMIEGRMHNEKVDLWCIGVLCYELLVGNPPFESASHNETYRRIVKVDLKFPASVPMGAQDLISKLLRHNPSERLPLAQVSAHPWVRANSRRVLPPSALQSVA

RIOK2 = RIOK2 (Homo sapiens, UniProt Q9BVS4)
ERK8 = molecular target: T4, ERK8 (Homo sapiens, UniProt Q8TD08)
T4 construct: gene MAPK15

CSNK1A1L = CSNK1A1L (Homo sapiens, UniProt Q8N752)

Q: Which results are given for `c1ccc2c(c1)Sc1ccccc1N2CCN1CCOCC1` [J54]?
A: remaining binding (CLK1): 85%; remaining binding (DCAMKL3): 95%; remaining binding (ERK4): 100%; remaining binding (EGFR(L858R,T790M)): 100%; remaining binding (PHKG1): 100%; remaining binding (CHEK2): 100%; remaining binding (IRAK4): 100%; remaining binding (NLK): 91%; remaining binding [1]: 100%; remaining binding (GSK3B): 100%; remaining binding (MYO3A): 100%; remaining binding (PAK6): 100%; remaining binding (TNNI3K): 100%; remaining binding (EPHB3): 100%; remaining binding (AURKB): 100%; remaining binding (RIOK2): 100%; remaining binding (ERK8): 89%; remaining binding (CSNK1A1L): 100%
